Results on 1 compound are retold here after patent US4771041A, “Method for combating virus infection” (priority 1976, dated 1988).

A short description of one data set: Acute toxicity in mice. Set-up: species or system male mice of NMRI strain. The note with it: mouse, in vivo, ip, as sodium salt, male NMRI mice. The protocol:
Phosphonoformic acid was tested for acute toxicity in mice. The compound (as its sodium salt) was given as solution i.p. in doses of 250, 500, 1000, 2000 and 4000 μmol/kg. Groups of 4 male mice of NMRI strain weighing 18.5-20.5 g were used for each dose.

In data set [1] the target is T1, reverse transcriptase from VV (Maedi visna virus, UniProt P03370).
T1 construct: Reverse transcriptase from various retroviruses have been tested in cell-free assays; made in house
The data set is described as follows: Cell-free reverse transcriptase inhibition, VV. The note with it: template/primer (rA)n.(dT)10, read-out: Percent inhibition. Type of data set: biochemical. As for the experimental part:
Reverse transcriptase from various retroviruses have been tested in cell-free assays for inhibition by phosphonoformic acid and phosphonoacetic acid. The assay conditions have been described by Collaborative Research, Inc, 1365 Main Street, Waltham, Mass., USA "Assay kit for mammalian viral reverse transcriptase". BLV and VV were prepared in this laboratory and all other viruses and viral enzyme were obtained from Dr. K Nilsson, Department of Pathology, University of Uppsala and from Boehringer Mannheim, Germany. Phosphonoformic acid (PFA) and phosphonoacetic acid (PAA) were added at pH 7.2 to the reaction mixtures at the start of the reaction.
Rauscher murine leukemia virus; RMuLV, visna virus; VV, avian myeloblastosis virus; AMV, bovine leukemia virus; BLV, baboon endogenous virus; BaEV, simian sarcoma virus; SSV.

The target in data set [2] is calf thymus DNA dependent RNA polymerase fraction B (DCB) (Bos taurus, UniProt A5PJW8+G3MZY8). The data set is described as follows: Inhibition of calf thymus DNA dependent RNA polymerase fraction B. The note with it: read-out: Inhibition % DCB. Type of data set: biochemical. The protocol:
Polymerases, nucleic acid template nucleoside triphosphates, of which guanosine triphosphate is tritium-labelled, salt and buffer are mixed at 0° C. in a total volume of 125 μl (for herpes DNA polymerase, see F. below). The concentrations of the nucleoside triphosphates UTP (uridine triphosphate), CTP (cytidinetriphosphate), GTP (guanosinetriphosphate) and ATP (adenosinetriphosphate) were generall 400, 400, 400, and 2000 μM, respectively. The test compound is also added in various concentrations to the mixture obtained. A standard mixture without test compound is also prepared using the same amounts of the ingredients. The enzyme reaction, i.e. synthesis of nucleic acid, is started by incubating the mixture at 37° C. For influenza RNA polymerases the temperature is 33° C. The reaction is allowed to proceed for 60 minutes in the assay of influenza and Micrococcus polymerases. […] The incorporation of labelled monomer into trichloroacetic acid insoluble nucleic acid product was measured in the following way. […] After drying the discs are measured for radioactivity in a liquid scintillation counter. The difference in radioactivity between samples with and without added compound is used to calculate the inhibition of the polymerase activity. The inhibition is expressed as percentage inhibition using the radioactivity of the standard sample as basis. […]

In data set [3] the test system is herpes simplex type 2 patient isolates. The experiment in a line: Herpes simplex type 2 plaque reduction assay on SIRC monolayers. The class given is cell-based. The note with it: Human alphaherpesvirus 2. The protocol: The inhibition of influenza virus and herpes virus by phosphonoformic acid has been measured as plaque reaction according to the following procedures.
The plaque reduction assay for herpes simplex type 1 was performed on GMK (Green Monkey Kidney) cells as described by Ejereito et el., J. Gen. Virol. 2 (1968) 357. Monolayers on 5 cm petri dishes were used and after virus adsorption phosphonoformic acid was added in the medium.
I. Inhibition by phosphonoformic acid of herpes simplex type 2 plaque
The plaque reduction assay for herpes simplex type 2 was performed in the same way as in experiment H. The results are shown in Table 9.
For orientation: In a plaque reduction assay, fewer plaques than in the control indicate reduced infectivity or spread.

Data set [4] deals with HTLV-III reverse transcriptase (Human immunodeficiency virus type 1 group M subtype B, UniProt P03366). The experiment in a line: HTLV-III reverse transcriptase assay. The class given is biochemical. The protocol:
The purified enzyme was stored in 50 mM Tris-HCl (pH 7.5), 1 mM dithiothreitol (DTT), 0.01% Triton X-100 and 20% glycerol. Reverse transcriptase assays were carried out in a reaction mixture (50 μl) containing 50 mM Tris-HCl (pH 7.5), 5 mM DTT, 100 mM potassium chloride, 0.01% Triton X-100 or NP40, 10 μg/ml (dT)15.(A)n as template primer and /^3 H/deoxythymidine triphosphate (/^3 H/-dTTP). The reaction mixture was incubated for 1 hour at 37° and the reaction was stopped by the addition of 50 μg of yeast tRNA and 2 ml of 10% solution of trichloroacetic acid (TCA) containing 1 mM sodium pyrophosphate. The samples were filtered on millipore filters (0.45 μm), washed first with 5% TCA solution (5 times) and then with 2 ml of 70% ethanol. The filters were dried under a heat lamp, scintillation fluid was added and the radioactivity counted in a β-scintillation counter.
The effect of foscarnet on purified HTLV-III reverse transcriptase (RT) was assayed as a function of drug concentration.

On the set-up of data set [5]: species or system Cynomolgus monkeys. The note with it: cynomolgus monkey, in vivo. As for the experimental part:
Phosphonoformic acid, also denoted PFA and phosphonoacetic acid, also denoted PAA were used in the form of their trisodium and disodium salt, respectively. The following equimolar compositions of the two test compounds were used: […]
Two adult male Cynomolgus monkeys were treated once daily for 7 days with PFA or PAA in Arlatone cream. Treatment was done both by topical application of 0.2 ml cream on an area of 3×7 cm on the upper part of the arms and by application of 0.2 ml of cream on the penis and the adjacent skin. During application of cream, the animals were lightly anaesthetized with Ketalar®, given intramuscularly. All applications were 0.2 ml each on day 6/3, 7/3, 8/3, 9/3, 10/3, 11/3 and 12/3 1978.

The subject of the next data set is influenza virus (WSN). The data set is described as follows: Influenza virus (WSN) plaque assay on MDCK monolayers. Type of data set: cell-based, influenza (WSN Wilson Smith Neurotropic type A). The note with it: unidentified influenza virus, read-out: Inhibition of plaque.

T1 sequence (P03370 541-1111): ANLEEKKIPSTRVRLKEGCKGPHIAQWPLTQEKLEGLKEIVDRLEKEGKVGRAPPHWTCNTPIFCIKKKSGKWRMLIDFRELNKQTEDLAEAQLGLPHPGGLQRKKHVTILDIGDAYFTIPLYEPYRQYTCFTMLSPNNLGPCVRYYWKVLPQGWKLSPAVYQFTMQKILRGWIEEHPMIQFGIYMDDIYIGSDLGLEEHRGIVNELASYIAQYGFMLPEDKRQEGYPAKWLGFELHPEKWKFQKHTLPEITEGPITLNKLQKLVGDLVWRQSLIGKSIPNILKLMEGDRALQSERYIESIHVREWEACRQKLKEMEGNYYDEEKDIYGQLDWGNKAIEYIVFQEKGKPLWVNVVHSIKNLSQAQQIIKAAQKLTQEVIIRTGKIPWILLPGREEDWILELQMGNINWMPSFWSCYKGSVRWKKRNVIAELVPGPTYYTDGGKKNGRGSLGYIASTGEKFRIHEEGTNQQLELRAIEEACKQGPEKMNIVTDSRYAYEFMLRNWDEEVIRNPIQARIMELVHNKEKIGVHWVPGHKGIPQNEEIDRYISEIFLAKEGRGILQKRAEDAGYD

For `O=C(O)P(=O)(O)O` [phosphonoformic acid], the LD50 in the data set “Acute toxicity in mice” was 2000 to 4000 µmol/kg. Also, the inhibition at 100 µM came to 95% in data set [1] (100 μM) and 10% with influenza virus (WSN). For the same compound, the inhibition at 500 µM amounted to 99% in data set [1] (500 μM), 0% in data set [2], 99.9% in data set [3] and 95% in the data set with influenza virus (WSN). In data set [4] (purified enzyme from different virus isolates, (dT)15.(A)n template primer, read-out: concentration causing 50% inhibition of HTLV-III reverse transcriptase activity), the IC50 was 100 to 2000 nM. Moreover, the “type of inhibition of reverse transcriptase” value in data set [4] (with respect to substrate and template) is “noncompetitive with respect to substrate and uncompetitive with respect to template”. Also, the “Result (skin irritation), area of application penis” value in data set [5] was “No symptoms”. In addition, the “Result (skin irritation), area of application upper arm” value in data set [5] was “No symptoms”. Besides, in the data set on influenza virus (WSN), the inhibition at 250 µM was 50%.

The term LD50 denotes the dose at which mortality reaches 50%. Broadly, the inhibition is how much of the control response was suppressed.
